Common to all, as to type: cell-based
Assay [1] relates to Staphylococcus aureus ATCC 43300 (MRSA). Kind of assay: Antibacterial broth microdilution assay (MIC), MRSA ATCC 43300. Conditions: 18 h; for MIC: Staphylococcus aureus, read-out: MIC ATCC 43300. As to the method:
(§1) These 24 DHP analogues were then screened for inhibition of Staphylococcus aureus growth using microdilution assays. Growth inhibition was examined in methicillin-sensitive S. aureus (ATCC 12600) and two strains of MRSA (ATCC 33591 and ATCC 43300). Antibiotic controls were included in the screen, including carbenicillin, erythromycin, gentamycin, trimethoprim, and vancomycin, and minimum inhibitory concentrations (MICs) were determined for each compound, which were defined as the concentration required to inhibit >95% of bacterial growth (Table 1).
(§2) Antibacterial Microdilution Assay (MIC Determination)
(§3) 1240 The MIC determination assays were performed in a BSL-2 laboratory with appropriate security and biosafety measures. The MICs were determined using a broth microdilution assay closely following the guidelines of the Clinical and Laboratories Standards Institute (CLSI). MICs were determined in duplicate for two biological replicates using 2-fold serial dilutions of test compounds or commercial antibiotics in cation-adjusted Mueller-Hinton broth. The central 60 wells of 96-well plates were 1245 prepared with the compound of interest at the indicated concentration, where 2 µL of the compound in DMSO were added prior to the addition of the culture. Overnight cultures of the different Staphylococcus aureus strains were diluted to provide an initial inoculum of approximately 5 X 10 5 CFU/mL that was delivered to each well in 198 µL of culture (final DMSO concentration of ~1%). Initial inoculum concentrations were verified by plating to count CFU/mL. Each plate was equipped with 1250 experimental controls for full growth (6 wells) and full growth inhibition (6 wells), and all control wells were in the presence of 1% DMSO. The outer 36 wells were filled with 200 µL of culture each to prevent growth effects on the interior 60 wells. The plates were incubated at 37 °C for 18 hours, at which time they were removed from the incubator and were allowed to equilibrate to room temperature for 30 minutes. Absorbance of each well at 600 nm was then read using a microplate reader to 1255 determine the MIC, and visual confirmation of growth inhibition was also performed. If variation was seen in the experimental values, the highest value of two independent trials was listed.
For orientation: In broth dilution the organism is exposed to a series of concentrations in liquid medium.

Assay [2] relates to Staphylococcus aureus ATCC 12600. Kind of assay: Antibacterial broth microdilution assay (MIC), methicillin-sensitive S. aureus ATCC 12600. As to conditions: for MIC: Staphylococcus aureus, read-out: MIC ATCC 12600. As to the method:
as §1, §2, §3

Assay [3] relates to Staphylococcus aureus ATCC 33591 (MRSA). Kind of assay: Antibacterial broth microdilution assay (MIC), MRSA ATCC 33591. Conditions: 18 h; for MIC: Staphylococcus aureus, read-out: MIC ATCC 33591. As to the method:
as §1, §2, §3

Another assay concerns Staphylococcus aureus. Kind of assay: S. aureus growth inhibition (all three strains or strain not specified). Conditions: for antibacterial potency of alkynyl esters compared to their ethyl variants: MIC comparison, Table 3; for MIC: Staphylococcus aureus, read-out: concentration inhibiting S. aureus growth (MIC). As to the method:
as §1, §2, §3

The mark [4] stands for this setting: amount inhibiting >95% of growth (A600), suffix 'I' = partial growth inhibition at the value, >95% at higher concentrations.
The mark [5] stands for this setting: ATCC12600, amount inhibiting >95% of growth (A600), 18 h, suffix 'I' = partial growth inhibition at the value, >95% at higher concentrations.
The mark [6] stands for this setting: all three S. aureus strains or strain not specified.

In brackets after ≈: the same amount, converted by molar mass. Like-named read-outs stand apart in the source and are kept apart here.

As to `CCOC(=O)C1=C(c2ccccc2)NC(N)=NC1c1ccccc1[N+](=O)[O-]` (stereo not drawn) [6a], the MIC in assay [1] (setting [4]), in assay [2] (setting [5]) and in assay [3] (setting [4]) was greater than 64 µg/mL throughout.

On to `CCOC(=O)C1=C(c2ccccc2)NC(N)=NC1c1cccc([N+](=O)[O-])c1` (stereo not drawn) [6b], for which the MIC in assay [2] (setting [5]) turned out to be 64 µg/mL (≈ 175 µM).

For `CCOC(=O)C1=C(c2ccccc2)NC(N)=NC1c1ccc([N+](=O)[O-])cc1` (stereo not drawn) [6c], the MIC in assay [1] (setting [4]), in assay [2] (setting [5]) and in assay [3] (setting [4]) was 64 µg/mL (≈ 175 µM) each time.

For `CCOC(=O)C1=C(c2ccccc2)NC(N)=NC1c1cccc(C(F)(F)F)c1` (stereo not drawn) [6d], the MIC in assay [1] (setting [4]), in assay [2] (setting [5]) and in assay [3] (setting [4]) was 32 µg/mL (≈ 82.2 µM) in each case.

For the compound `CCOC(=O)C1=C(c2ccccc2)NC(N)=NC1c1ccc(C(F)(F)F)cc1` (stereo not drawn) [6e], the MIC in assay [1] (setting [4]), in assay [2] (setting [5]) and in assay [3] (setting [4]) was 16 µg/mL (≈ 41.1 µM) each time.

As to `CCOC(=O)C1=C(c2ccccc2)NC(N)=NC1c1ccccc1F` (stereo not drawn) [6f], the MIC in assay [1] (setting [4]), in assay [2] (setting [5]) and in assay [3] (setting [4]) was greater than 64 µg/mL each time.

In the case of `CCOC(=O)C1=C(c2ccccc2)NC(N)=NC1c1ccc(C)cc1` (stereo not drawn) [6m], the MIC in assay [1] (setting [4]), in assay [2] (setting [5]) and in assay [3] (setting [4]) was greater than 64 µg/mL each time.

On to `CCOC(=O)C1=C(c2ccccc2)NC(N)=NC1c1c(C)cccc1C` (stereo not drawn) [6n], for which the MIC in assay [3] (setting [4]) was 64 µg/mL (≈ 183 µM).

As to `CCOC(=O)C1=C(c2ccccc2)NC(N)=NC1c1ccc(C)c(C)c1` (stereo not drawn) [6p], the MIC in assay [1] (setting [4]) is 32 µg/mL (≈ 91.6 µM).

Regarding `CCOC(=O)C1=C(c2ccccc2)NC(N)=NC1c1cc(C)cc(C)c1` (stereo not drawn) [6q], the MIC in assay [1] (setting [4]), in assay [2] (setting [5]) and in assay [3] (setting [4]) was greater than 64 µg/mL each time.

For `CCOC(=O)C1=C(c2ccccc2)NC(N)=NC1c1cccc(OC)c1` (stereo not drawn) [6t], the MIC in assay [1] (setting [4]), in assay [2] (setting [5]) and in assay [3] (setting [4]) was greater than 64 µg/mL in each case.

Turning to `CCOC(=O)C1=C(c2ccccc2)NC(N)=NC1c1cc(OC)cc(OC)c1` (stereo not drawn) [6v], the MIC in assay [1] (setting [4]), in assay [2] (setting [5]) and in assay [3] (setting [4]) was greater than 64 µg/mL throughout.

In the case of `CCOC(=O)C1=C(CC)NC(N)=NC1c1ccc(-c2ccccc2)cc1` (stereo not drawn) [7d], the MIC in assay [3] (setting [4]) came to 8 µg/mL (≈ 22.9 µM).

With `CCOC(=O)C1=C(c2cccc(C)c2)NC(N)=NC1c1ccc(CC(C)C)cc1` (stereo not drawn) [7j], the MIC in assay [1] (setting [4]), in assay [2] (setting [5]) and in assay [3] (setting [4]) was 4 µg/mL (≈ 10.2 µM) throughout.

In the case of `CCOC(=O)C1=C(c2ccccc2)NC(N)=NC1c1ccc(C2(C(F)(F)F)N=N2)cc1` (stereo not drawn) [26a], the MIC in assay [1] (setting [4]) and in assay [2] (setting [5]) was 4 µg/mL (≈ 9.32 µM) each time.

Turning to `CCOC(=O)C1=C(c2ccc(C3(C(F)(F)F)N=N3)cc2)NC(N)=NC1c1cc(Cl)cc(Cl)c1` (stereo not drawn) [26b], the MIC in assay [1] (setting [4]) and in assay [2] (setting [5]) was 4 µg/mL (≈ 8.03 µM) each time.

For the compound `CCOC(=O)C1=C(c2ccc(C3(C(F)(F)F)N=N3)cc2)NC(N)=NC1c1ccc(CC(C)C)cc1` (stereo not drawn) [26c], the MIC in assay [1] (setting [4]) and in assay [2] (setting [5]) was 2 µg/mL (≈ 4.12 µM) each time.

On to `C#CCCOC(=O)C1=C(c2ccccc2)NC(N)=NC1c1cc(Cl)cc(Cl)c1` (stereo not drawn) [26d], for which the MIC in assay [1] (setting [4]) and in assay [2] (setting [5]) was 16 µg/mL (≈ 38.6 µM) throughout. For the same compound, in the assay on Staphylococcus aureus, the “antibacterial potency of alkynyl esters compared to their ethyl variants” value is 2-fold decreased potency.

In the case of `C#CCCOC(=O)C1=C(c2ccccc2)NC(N)=NC1c1ccc(C2(C(F)(F)F)N=N2)cc1` (stereo not drawn) [26e], the MIC in assay [1] (setting [4]) and in assay [2] (setting [5]) was 8 µg/mL (≈ 17.6 µM) in each case. Moreover, the “antibacterial potency of alkynyl esters compared to their ethyl variants” value in the assay with Staphylococcus aureus is recorded as 2-fold decreased potency.

On to `C#CCCCOC(=O)C1=C(c2ccccc2)NC(N)=NC1c1cc(Cl)cc(Cl)c1` (stereo not drawn) [26f], for which the MIC in assay [1] (setting [4]) and in assay [2] (setting [5]) was 4 µg/mL (≈ 9.34 µM) each time. Moreover, the “antibacterial potency of alkynyl esters compared to their ethyl variants” value with Staphylococcus aureus is on record as 2-fold increased potency.

Regarding `C#CCCCOC(=O)C1=C(c2ccccc2)NC(N)=NC1c1ccc(C2(C(F)(F)F)N=N2)cc1` (stereo not drawn) [26g], the MIC in assay [1] (setting [4]) and in assay [2] (setting [5]) was 4 µg/mL (≈ 8.56 µM) each time. In the assay with Staphylococcus aureus, the “antibacterial potency of alkynyl esters compared to their ethyl variants” value is recorded as “equal potency”.

For `C#CCCCOC(=O)C1=C(c2ccc(C3(C(F)(F)F)N=N3)cc2)NC(N)=NC1c1ccc(CC(C)C)cc1` (stereo not drawn) [26h], the MIC (in assay [1] (setting [4]); in assay [2] (setting [5]); in the assay on Staphylococcus aureus (setting [6])) was 2 µg/mL (≈ 3.82 µM) each time. In the assay on Staphylococcus aureus, the “antibacterial potency of alkynyl esters compared to their ethyl variants” value is on record as “equal potency”.

With `CC1(C)S[C@@H]2[C@H](NC(=O)C(C(=O)O)c3ccccc3)C(=O)N2[C@H]1C(=O)O` (stereo partly drawn) [carbenicillin, reference compound], the MIC in assay [1] (setting [4]) came to 32 µg/mL (≈ 84.6 µM); in assay [2] (setting [5]), 2 µg/mL (≈ 5.29 µM); in assay [3] (setting [4]) it was 128 µg/mL (≈ 338 µM).

Consider `CCOC(=O)CC(=O)c1ccc(C2(C(F)(F)F)N=N2)cc1` [compound 11], for which the MIC (in assay [1] (setting [4]); in assay [2] (setting [5]); with Staphylococcus aureus (setting [6])) was greater than 64 µg/mL in each case.

On to `O=Cc1ccc(C2(C(F)(F)F)N=N2)cc1` [compound 25], for which the MIC (in assay [1] (setting [4]); in assay [2] (setting [5]); with Staphylococcus aureus (setting [6])) was greater than 64 µg/mL each time.

For the compound `CC[C@H]1OC(=O)[C@H](C)[C@@H](O[C@H]2C[C@@](C)(OC)[C@@H](O)[C@H](C)O2)[C@H](C)[C@@H](O[C@@H]2O[C@H](C)C[C@H](N(C)C)[C@H]2O)[C@](C)(O)C[C@@H](C)C(=O)[C@H](C)[C@@H](O)[C@]1(C)O` [erythromycin, reference compound], the MIC in assay [1] (setting [4]) was greater than 512 µg/mL; in assay [2] (setting [5]), 0.5 µg/mL (≈ 0.681 µM); in assay [3] (setting [4]), greater than 512 µg/mL.

Take `CN[C@H](CC(C)C)C(=O)N[C@H]1C(=O)N[C@@H](CC(N)=O)C(=O)N[C@H]2C(=O)N[C@H]3C(=O)N[C@H](C(=O)N[C@H](C(=O)O)c4cc(O)cc(O)c4-c4cc3ccc4O)[C@H](O)c3ccc(c(Cl)c3)Oc3cc2cc(c3O[C@@H]2O[C@H](CO)[C@@H](O)[C@H](O)[C@H]2O[C@H]2C[C@](C)(N)[C@H](O)[C@H](C)O2)Oc2ccc(cc2Cl)[C@H]1O` [vancomycin, reference compound]: the MIC in assay [1] was determined as 2 µg/mL (≈ 1.38 µM); in assay [2] (ATCC12600, 18 h), 2 µg/mL (≈ 1.38 µM); in the assay on Staphylococcus aureus, 2 µg/mL (≈ 1.38 µM); in assay [3] it was 2 µg/mL (≈ 1.38 µM).

As for gentamycin [reference compound], the “MIC ATCC 43300” value in assay [1] (setting [4]) was 128 µg/mL. Further, the “MIC ATCC 12600” value in assay [2] (amount inhibiting >95% of growth (A600), 18 h, suffix 'I' = partial growth inhibition at the value, >95% at higher concentrations) was found to be 4 µg/mL. Moreover, in assay [3] (setting [4]), the “MIC ATCC 33591” value was 4 µg/mL.

These data come from paper PMC11247627, “Evaluation of Antibacterial Functionalized Dihydropyrimidine Photoaffinity Probes Toward Mechanism of Action Studies” (ACS Medicinal Chemistry Letters, 2024).
